One data set addresses hAChE (Homo sapiens, UniProt P22303). Description: hAChE inhibition, Ellman's method. It is filed as biochemical. On the technique in general: DTNB colorimetry detects thiols as they appear.
Another data set relates to murine AChE. Conditions: cited from earlier work.
Data set [1] deals with Electrophorus electricus AChE (eeAChE). Conditions: cited from earlier work.
Data set [2] has as its system horse serum BChE (eqBChE). The note with it: cited from earlier work.
Another data set concerns the target hBChE (Homo sapiens, UniProt P06276). Kind of data set: hBChE inhibition, Ellman's method. The format is biochemical. Conditions: IC50 ± SEM hBChE, Table 1; n = 3, in triplicates.
The target of the next data set is T1, hMAO-A (Homo sapiens, UniProt P21397).
T1 sequence (P21397 1-527): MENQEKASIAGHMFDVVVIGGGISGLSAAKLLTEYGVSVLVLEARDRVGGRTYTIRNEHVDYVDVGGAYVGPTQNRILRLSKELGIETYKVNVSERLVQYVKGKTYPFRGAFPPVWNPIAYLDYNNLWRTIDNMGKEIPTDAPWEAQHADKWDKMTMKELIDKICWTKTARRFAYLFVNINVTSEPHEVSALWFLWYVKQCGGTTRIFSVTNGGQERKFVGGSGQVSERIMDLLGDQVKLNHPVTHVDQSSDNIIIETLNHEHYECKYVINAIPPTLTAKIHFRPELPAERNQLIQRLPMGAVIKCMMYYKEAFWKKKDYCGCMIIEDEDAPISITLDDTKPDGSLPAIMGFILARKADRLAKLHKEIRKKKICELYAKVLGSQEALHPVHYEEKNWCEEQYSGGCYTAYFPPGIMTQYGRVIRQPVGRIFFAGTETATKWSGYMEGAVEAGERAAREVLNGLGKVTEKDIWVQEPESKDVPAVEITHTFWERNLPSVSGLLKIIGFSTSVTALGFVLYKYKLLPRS
Kind of data set: hMAO-A inhibition, horseradish-Amplex Red coupled assay. The format is biochemical.

The next data set has as its target T2, hMAO-B (Homo sapiens, UniProt P27338).
T2 sequence (P27338 1-520): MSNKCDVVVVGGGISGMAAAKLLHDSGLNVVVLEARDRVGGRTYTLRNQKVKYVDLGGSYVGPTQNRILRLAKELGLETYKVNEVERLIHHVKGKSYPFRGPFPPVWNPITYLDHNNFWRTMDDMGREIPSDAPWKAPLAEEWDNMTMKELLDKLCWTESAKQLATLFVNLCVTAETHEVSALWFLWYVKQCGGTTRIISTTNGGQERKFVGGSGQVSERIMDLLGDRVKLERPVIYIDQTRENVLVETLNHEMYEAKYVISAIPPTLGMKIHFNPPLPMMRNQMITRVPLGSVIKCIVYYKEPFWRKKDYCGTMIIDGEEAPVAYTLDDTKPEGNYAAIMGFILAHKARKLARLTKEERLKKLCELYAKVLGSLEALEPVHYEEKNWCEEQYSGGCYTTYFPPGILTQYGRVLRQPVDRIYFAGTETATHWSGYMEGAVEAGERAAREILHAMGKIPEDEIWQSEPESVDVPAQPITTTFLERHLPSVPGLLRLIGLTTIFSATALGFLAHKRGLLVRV
Kind of data set: hMAO-B inhibition, horseradish-Amplex Red coupled assay. The format is biochemical.

Data set [3] in a line: DPPH radical-scavenging assay. Conditions: means ± SEM (n = 2, in triplicates); for EC50: read-out: Radical-scavenging DPPH assay EC50. A general note: The DPPH test is a chemical assay of radical scavenging.
The target of another data set is Aβ1–42 (Homo sapiens, UniProt P05067). Kind of data set: Aβ1–42 aggregation inhibition, ThT fluorescence assay. The format is biochemical. Conditions: 10 μmol/L ligand and 1.5 μmol/L Aβ1–42; mean ± SD (n ≥ 3).
Aβ1–42, sequence (P05067 672-713): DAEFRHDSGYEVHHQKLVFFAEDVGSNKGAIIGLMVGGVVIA
A short description of a further data set: BBB-PAMPA permeability. Conditions: pH 7.4, 4 h, 25 °C, brain sink buffer; for Papp at 4 h, 100 μmol/L: PAMPA, pH 7.4, BBB–PAMPA permeability Papp (mean ± SD). In general terms: In PAMPA a lipid-coated filter parts donor from acceptor wells.
For the next data set, the system named is mice. Kind of data set: Rotarod test. The note with it: 2.5 mg/kg. The format is in vivo.
For data set [4], the system named is scopolamine-induced amnesic mice. Kind of data set: Passive avoidance. It is filed as in vivo. Conditions: doses of one and 2 mg/kg; P < 0.001.

By Ki is commonly meant the dissociation constant of the complex between target and ligand, obtained from inhibition or displacement. By IC50 is commonly meant the concentration needed to halve the response being measured. A word on the Papp: it is a coefficient for how fast a substance crosses the barrier. As a reminder, the EC50 is the concentration at which the effect is half-maximal.

hBChE, sequence (P06276 29-602): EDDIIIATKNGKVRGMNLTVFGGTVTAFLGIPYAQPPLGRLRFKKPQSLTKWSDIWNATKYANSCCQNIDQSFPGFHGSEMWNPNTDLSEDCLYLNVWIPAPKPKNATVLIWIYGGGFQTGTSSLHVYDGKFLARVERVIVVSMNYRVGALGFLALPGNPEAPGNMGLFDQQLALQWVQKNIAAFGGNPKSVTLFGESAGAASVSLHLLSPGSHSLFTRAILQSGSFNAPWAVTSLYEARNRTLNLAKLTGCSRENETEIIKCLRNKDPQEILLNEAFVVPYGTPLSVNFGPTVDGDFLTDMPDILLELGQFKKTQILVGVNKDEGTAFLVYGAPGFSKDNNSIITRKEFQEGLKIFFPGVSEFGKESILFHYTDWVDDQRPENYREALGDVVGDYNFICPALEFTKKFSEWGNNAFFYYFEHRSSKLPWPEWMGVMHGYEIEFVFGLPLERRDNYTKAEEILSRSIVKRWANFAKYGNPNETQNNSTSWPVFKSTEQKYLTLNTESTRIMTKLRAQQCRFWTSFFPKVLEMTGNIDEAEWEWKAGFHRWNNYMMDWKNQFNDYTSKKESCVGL
hAChE, sequence (P22303 32-614): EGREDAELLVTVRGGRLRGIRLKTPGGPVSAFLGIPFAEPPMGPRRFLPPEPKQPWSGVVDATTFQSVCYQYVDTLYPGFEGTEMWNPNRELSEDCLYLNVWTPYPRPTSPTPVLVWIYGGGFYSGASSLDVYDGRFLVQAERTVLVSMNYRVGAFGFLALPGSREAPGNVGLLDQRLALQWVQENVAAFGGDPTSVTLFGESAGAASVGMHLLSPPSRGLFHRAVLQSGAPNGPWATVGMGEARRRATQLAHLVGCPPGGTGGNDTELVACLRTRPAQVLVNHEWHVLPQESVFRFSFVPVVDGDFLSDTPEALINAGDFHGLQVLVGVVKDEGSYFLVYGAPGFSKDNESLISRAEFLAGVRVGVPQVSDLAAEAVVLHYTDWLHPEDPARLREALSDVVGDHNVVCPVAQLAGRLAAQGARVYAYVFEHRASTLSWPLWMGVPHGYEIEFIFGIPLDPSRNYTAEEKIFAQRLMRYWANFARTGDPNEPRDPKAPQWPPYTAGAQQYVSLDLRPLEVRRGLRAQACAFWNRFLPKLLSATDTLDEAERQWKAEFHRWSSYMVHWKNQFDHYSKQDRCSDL

As to `CC(C)(C)/[N+]([O-])=C/c1ccccc1` [PBN, α-phenyl-tert-butylnitrone], the “hAChE inhibition (in words)” value at hAChE is recorded as “no inhibition”. The “murine AChE Ki′” value in the data set on murine AChE is 2990 µM. The Ki on murine AChE (read-out: murine AChE Ki) is 580 µM. Further, the “eeAChE inhibition (in words)” value in [1] is on record as “no inhibition”. Also, in [2] (read-out: eqBChE IC50), the IC50 is 478 ± 38 µM.

The compound `COc1cccc2cc(/C=[N+](\[O-])C(C)(C)C)c(OCCCN3CCCCC3)nc12` [QN 1, (Z)-N-tert-Butyl-1-(8-methoxy-2-(3-(piperidin-1-yl)propoxy)quinolin-3-yl)methanimine oxide] gave an IC50 on hBChE of 0.707 ± 0.0454 µM.

In the case of `COc1cccc2cc(/C=[N+](\[O-])Cc3ccccc3)c(OCCCN3CCCCC3)nc12` [QN 2, (Z)-N-Benzyl-1-(8-methoxy-2-(3-(piperidin-1-yl)propoxy)quinolin-3-yl)methanimine oxide], the IC50 at hAChE was found to be 39.6 ± 6.1 µM; at hBChE, 0.415 ± 0.0167 µM.

Compound `C#CCN1CCN(CCCOc2nc3c(OC)cccc3cc2/C=[N+](\[O-])C(C)(C)C)CC1` [QN 3, (Z)-N-tert-Butyl-1-(8-methoxy-2-(3-(4-(prop-2-yn-1-yl)piperazin-1-yl)propoxy)quinolin-3-yl)methanimine oxide] displayed an IC50 against hBChE of 2.06 ± 0.04 µM.

Regarding `C#CCN1CCN(CCCOc2nc3c(OC)cccc3cc2/C=[N+](\[O-])Cc2ccccc2)CC1` [QN 4, (Z)-N-Benzyl-1-(8-methoxy-2-(3-(4-(prop-2-yn-1-yl)piperazin-1-yl)propoxy)quinolin-3-yl)methanimine oxide], half-maximal inhibition at hBChE (IC50) required 3.06 ± 0.29 µM.

Turning to `CC(C)(C)/[N+]([O-])=C/c1cc2cccc(OCCCN3CCCCC3)c2nc1Cl` [QN 5, (Z)-N-tert-Butyl-1-(2-chloro-8-(3-(piperidin-1-yl)propoxy)quinolin-3-yl)methanimine oxide], the values for the IC50 at hMAO-A, on hAChE and against hBChE were 113 ± 13.2 µM, 44.7 ± 4.8 µM and 5.57 ± 0.46 µM, respectively.

Take `[O-]/[N+](=C\c1cc2cccc(OCCCN3CCCCC3)c2nc1Cl)Cc1ccccc1` [QN 6, (Z)-N-Benzyl-1-(2-chloro-8-(3-(piperidin-1-yl)propoxy)quinolin-3-yl)methanimine oxide]: the IC50 at hMAO-A turned out to be 106 ± 3.7 µM; at hMAO-B, 50.4 ± 4.5 µM; against hAChE it was 68.6 ± 13.6 µM; on hBChE, 10.2 ± 1.1 µM.

As for `C#CCN1CCN(CCCOc2cccc3cc(/C=[N+](\[O-])C(C)(C)C)c(Cl)nc23)CC1` [QN 7, (Z)-N-tert-Butyl-1-(2-chloro-8-(3-(4-(prop-2-yn-1-yl)piperazin-1-yl)propoxy)quinolin-3-yl)methanimine oxide], it took 13.3 ± 0.9 µM to reach half-maximal inhibition on hBChE (IC50).

Turning to `C#CCN1CCN(CCCOc2cccc3cc(/C=[N+](\[O-])Cc4ccccc4)c(Cl)nc23)CC1` [QN 8, (Z)-N-Benzyl-1-(2-chloro-8-(3-(4-(prop-2-yn-1-yl)piperazin-1-yl)propoxy)quinolin-3-yl)methanimine oxide], the figures for the IC50 at hMAO-A, against hMAO-B and on hBChE were 14.9 ± 1.2 µM, 13.8 ± 1.8 µM and 14.8 ± 2.1 µM, respectively.

In the case of `COc1cccc2cc(/C=[N+](\[O-])C(C)(C)C)c(Cl)nc12` [QN 9, (Z)-N-tert-Butyl-1-(2-chloro-8-methoxyquinolin-3-yl)methanimine oxide], at hBChE, inhibition was half-maximal at 15.2 ± 1.1 µM (IC50).

On to `CC(C)(C)/[N+]([O-])=C/c1cc2cccc(O)c2nc1Cl` [QN 11, (Z)-N-tert-Butyl-1-(2-chloro-8-hydroxyquinolin-3-yl)methanimine oxide], for which the IC50 on hBChE came out at 12.4 ± 0.7 µM.

Compound `[O-]/[N+](=C\c1cc2cccc(O)c2nc1Cl)Cc1ccccc1` [QN 12, (Z)-N-Benzyl-1-(2-chloro-8-hydroxyquinolin-3-yl)methanimine oxide] had an IC50 against hBChE of 10.7 ± 0.7 µM.

As to `C#CCN1CCN(CCCOc2cccc3ccc(/C=[N+](\[O-])C(C)(C)C)nc23)CC1` [QN 15, (Z)-N-tert-Butyl-1-(8-(3-(4-(prop-2-yn-1-yl)piperazin-1-yl)propoxy)quinolin-2-yl)methanimine oxide], the “Radical-scavenging DPPH assay EC50” value in data set [3] is “n.a. ^d (n.a., not active–% DPPH reduced at 100 μmol/L concentration lower than 10%)”. At Aβ1–42, the “Inhibition of Aβ1–42 aggregation” value is reported as “n.i. ^e (n.i., no inhibition <20%)”. In “BBB-PAMPA permeability”, the Papp at 4 h, 100 μmol/L worked out at 72.2 ± 2.7 ×10⁻⁶ cm/s and the “BBB–PAMPA permeability −LogPe” value stood at 4.1 log [cm/s].

`CC(C)(C)/[N+]([O-])=C/c1ccc2cccc(O)c2n1` [QN 18, (Z)-N-tert-Butyl-1-(8-hydroxyquinolin-2-yl)methanimine oxide]: the EC50 in data set [3] worked out at 119 ± 1.2 µM. Moreover, the “Inhibition of Aβ1–42 aggregation” value at Aβ1–42 is listed as “n.i. ^e (n.i., no inhibition <20%)”. For the same compound, in the data set “BBB-PAMPA permeability”, the Papp at 4 h, 100 μmol/L came out at 43.7 ± 4.1 ×10⁻⁶ cm/s and the “BBB–PAMPA permeability −LogPe” value amounted to 4.4 log [cm/s].

On to `O=Cc1ccc2cccc(O)c2n1` [QN 30, 8-hydroxyquinoline-2-carbaldehyde], for which, at hMAO-B, it took 43.9 ± 3.4 µM to reach half-maximal inhibition (IC50).

As for `C#CCN1CCN(CCCOc2cccc3ccc(C=O)nc23)CC1` [QN 32, 8-(3-(4-(Prop-2-yn-1-yl)piperazin-1-yl)propoxy)quinoline-2-carbaldehyde], the “Radical-scavenging DPPH assay EC50” value in data set [3] is reported as “n.a. ^d (n.a., not active–% DPPH reduced at 100 μmol/L concentration lower than 10%)”. Moreover, on Aβ1–42, the “Inhibition of Aβ1–42 aggregation” value worked out at 40.7 ± 2.4%∗. For the same compound, in “BBB-PAMPA permeability”, the Papp at 4 h, 100 μmol/L came out at 50.3 ± 2.8 ×10⁻⁶ cm/s and the “BBB–PAMPA permeability −LogPe” value was 4.3 log [cm/s].

Take `CNC1=Nc2ccc(Cl)cc2C(c2ccccc2)=[N+]([O-])C1` [chlordiazepoxide]: the Ki in [1] (read-out: eeAChE Ki) is 50 ± 7 µM; in data set [2] (read-out: eqBChE Ki) it was 0.3 ± 0.04 µM.

`Oc1ccc(/C=C/c2cc(O)cc(O)c2)cc1` [resveratrol, reference compound]: the EC50 in [3] was 50.1 µM.

`CCN(C)C(=O)Oc1cccc([C@H](C)N(C)C)c1` [rivastigmine, reference compound]: in the data set with mice, the “motor effects shortly after administration” value is “caused muscle tremor and transient motor coordination deficits”. The “step-through latency in retention trial versus scopolamine-treated control” value in [4] is reported as “significant differences”.

The values are drawn from paper PMC10213797 (Acta Pharmaceutica Sinica. B, 2023).
